# Source: PubChem BioAssay AID1963856 (Molecular Pharmacology Branch, DTP, NCI, 2024)
# pIC50: −log10 of the molar value.
# Tested on: LG0567-F671-PDC KRAS tumor spheroid viability
# Experiment: Anticancer human tumor LG0567-F671-PDC patient-derived lung adenocarcinoma cell line growth inhibition [KRAS2]
# Details: spheroids with HUVEC and MSC; for pIC50: curve of first compound; for viability, T/C: stronger effect = lower value
# In short: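 Combination screen of spheroid viability in tumor-cell co-cultures with endothelial (HUVEC) and mesenchymal stem cell stroma. Each agent was tested in half-log dilutions, topping at clinical Cmax or at 10 microM without a known Cmax.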
# [1] = second compound 0.1 µM, first compound 0.0316 µM
# [2] = second compound 0.1 µM, first compound 0.1 µM
# [3] = second compound 0.1 µM, first compound 0.316 µM
# [4] = second compound 0.1 µM, first compound 1 µM
# [5] = second compound 0.1 µM, first compound 3.16 µM
# [6] = second compound 0.1 µM, first compound 10 µM
# [7] = second compound 0.316 µM, first compound 0.0316 µM
# [8] = second compound 0.316 µM, first compound 0.1 µM
# [9] = second compound 0.316 µM, first compound 0.316 µM
# [10] = second compound 0.316 µM, first compound 1 µM
# [11] = second compound 0.316 µM, first compound 3.16 µM
# [12] = second compound 0.316 µM, first compound 10 µM
# [13] = second compound 1 µM, first compound 0.0316 µM
# [14] = second compound 1 µM, first compound 0.1 µM
# [15] = second compound 1 µM, first compound 0.316 µM
# [16] = second compound 1 µM, first compound 1 µM
# [17] = second compound 1 µM, first compound 3.16 µM
# [18] = second compound 1 µM, first compound 10 µM
# [19] = second compound 3.16 µM, first compound 0.0316 µM
# [20] = second compound 3.16 µM, first compound 0.1 µM
# [21] = second compound 3.16 µM, first compound 0.316 µM
# [22] = second compound 3.16 µM, first compound 1 µM
# [23] = second compound 3.16 µM, first compound 3.16 µM
# [24] = second compound 3.16 µM, first compound 10 µM
# [25] = second compound 10 µM, first compound 0.0316 µM
# [26] = second compound 10 µM, first compound 0.1 µM
# [27] = second compound 10 µM, first compound 0.316 µM
# [28] = second compound 10 µM, first compound 1 µM
# [29] = second compound 10 µM, first compound 3.16 µM
# [30] = second compound 10 µM, first compound 10 µM
# 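Also: drug exposure lasted seven days after spheroids formed for three days.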
# 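For viability, T/C in this document: 100% = DMSO vehicle control viability.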
smiles,measurement,setting,value
COC(=O)c1ccc2c(C(=Nc3ccc(N(C)C(=O)CN4CCN(C)CC4)cc3)c3ccccc3)c(O)[nH]c2c1 + COc1cc2nc(C)nc(NC(C)c3cc(N)cc(C(F)(F)F)c3)c2cc1OC1CCOC1,pIC50,second compound 0.1 µM,< 5.00
same,pIC50,second compound 0.316 µM,< 5.00
same,pIC50,second compound 1 µM,< 5.00
same,pIC50,second compound 3.16 µM,5.39
same,pIC50,second compound 10 µM,5.80
same,"viability, T/C",[1],112%
same,"viability, T/C",[2],76.2%
same,"viability, T/C",[3],65.9%
same,"viability, T/C",[4],85.8%
same,"viability, T/C",[5],83.8%
same,"viability, T/C",[6],69.5%
same,"viability, T/C",[7],60.2%
same,"viability, T/C",[8],51.6%
same,"viability, T/C",[9],58.8%
same,"viability, T/C",[10],71.2%
same,"viability, T/C",[11],61.7%
same,"viability, T/C",[12],64.1%
same,"viability, T/C",[13],72.3%
same,"viability, T/C",[14],66.3%
same,"viability, T/C",[15],61.5%
same,"viability, T/C",[16],71.1%
same,"viability, T/C",[17],66.4%
same,"viability, T/C",[18],61.4%
same,"viability, T/C",[19],73.8%
same,"viability, T/C",[20],75.2%
same,"viability, T/C",[21],66.7%
same,"viability, T/C",[22],71.8%
same,"viability, T/C",[23],64.2%
same,"viability, T/C",[24],0.24%
same,"viability, T/C",[25],78.7%
same,"viability, T/C",[26],81.1%
same,"viability, T/C",[27],82.3%
same,"viability, T/C",[28],79%
same,"viability, T/C",[29],6.56%
same,"viability, T/C",[30],1.03%
CN(C)C/C=C/C(=O)Nc1cc2c(Nc3ccc(F)c(Cl)c3)ncnc2cc1O[C@H]1CCOC1 + C=CC(=O)N1CCN(c2nc(OCC3CCCN3C)nc3c2CCN(c2cccc4cccc(C)c24)C3)CC1CC#N,pIC50,second compound 0.0316 µM,> 9.50
same,pIC50,second compound 0.1 µM,> 9.50
same,pIC50,second compound 0.316 µM,> 9.50
same,pIC50,second compound 1 µM,> 9.50
same,pIC50,second compound 3.16 µM,> 9.50
same,"viability, T/C","second compound 0.0316 µM, first compound 0.000316 µM",39.3%
same,"viability, T/C","second compound 0.0316 µM, first compound 0.001 µM",40.4%
same,"viability, T/C","second compound 0.0316 µM, first compound 0.00316 µM",41.9%
same,"viability, T/C","second compound 0.0316 µM, first compound 0.01 µM",29.8%
same,"viability, T/C","second compound 0.0316 µM, first compound 0.0316 µM",30.4%
same,"viability, T/C","second compound 0.0316 µM, first compound 0.1 µM",23.5%
same,"viability, T/C","second compound 0.1 µM, first compound 0.000316 µM",38.1%
same,"viability, T/C","second compound 0.1 µM, first compound 0.001 µM",32%
same,"viability, T/C","second compound 0.1 µM, first compound 0.00316 µM",26.5%
same,"viability, T/C","second compound 0.1 µM, first compound 0.01 µM",34.5%
same,"viability, T/C",[1],25.8%
same,"viability, T/C",[2],18.5%
same,"viability, T/C","second compound 0.316 µM, first compound 0.000316 µM",24.8%
same,"viability, T/C","second compound 0.316 µM, first compound 0.001 µM",28.8%
same,"viability, T/C","second compound 0.316 µM, first compound 0.00316 µM",34.4%
same,"viability, T/C","second compound 0.316 µM, first compound 0.01 µM",30.4%
same,"viability, T/C",[7],32.1%
same,"viability, T/C",[8],20.1%
same,"viability, T/C","second compound 1 µM, first compound 0.000316 µM",29.3%
same,"viability, T/C","second compound 1 µM, first compound 0.001 µM",32.6%
same,"viability, T/C","second compound 1 µM, first compound 0.00316 µM",25.1%
same,"viability, T/C","second compound 1 µM, first compound 0.01 µM",22.2%
same,"viability, T/C",[13],21.2%
same,"viability, T/C",[14],19%
same,"viability, T/C","second compound 3.16 µM, first compound 0.000316 µM",26.5%
same,"viability, T/C","second compound 3.16 µM, first compound 0.001 µM",10.8%
same,"viability, T/C","second compound 3.16 µM, first compound 0.00316 µM",15.7%
same,"viability, T/C","second compound 3.16 µM, first compound 0.01 µM",6.55%
same,"viability, T/C",[19],10.2%
same,"viability, T/C",[20],11.3%
Cn1nccc1Nc1nccc(-c2cc3c(s2)C(C)(C)N(CCN2CCOCC2)C3=O)n1 + C=CC(=O)N1CCN(c2nc(=O)n(-c3c(C)ccnc3C(C)C)c3nc(-c4c(O)cccc4F)c(F)cc23)C(C)C1,pIC50,second compound 0.1 µM,> 7.50
same,pIC50,second compound 0.316 µM,> 7.50
same,pIC50,second compound 1 µM,> 7.50
same,pIC50,second compound 3.16 µM,> 7.50
same,pIC50,second compound 10 µM,> 7.50
same,"viability, T/C",[1],21.2%
same,"viability, T/C",[2],23.1%
same,"viability, T/C",[3],19.2%
same,"viability, T/C",[4],20.8%
same,"viability, T/C",[5],14.1%
same,"viability, T/C",[6],16.3%
same,"viability, T/C",[7],22.2%
same,"viability, T/C",[8],19.8%
same,"viability, T/C",[9],19.9%
same,"viability, T/C",[10],17.8%
same,"viability, T/C",[11],15.6%
same,"viability, T/C",[12],17.2%
same,"viability, T/C",[13],23.1%
same,"viability, T/C",[14],21.8%
same,"viability, T/C",[15],21%
same,"viability, T/C",[16],20.9%
same,"viability, T/C",[17],15%
same,"viability, T/C",[18],20.8%
same,"viability, T/C",[19],22.2%
same,"viability, T/C",[20],18.1%
same,"viability, T/C",[21],20.3%
same,"viability, T/C",[22],12.2%
same,"viability, T/C",[23],14%
same,"viability, T/C",[24],20.9%
same,"viability, T/C",[25],20.5%
same,"viability, T/C",[26],19.2%
same,"viability, T/C",[27],14.5%
same,"viability, T/C",[28],12.2%
same,"viability, T/C",[29],15.2%
same,"viability, T/C",[30],26.8%
